In patent US8754105B2, “Macrocyclic inhibitors of hepatitis C virus” (Medivir AB, priority 2005, dated 2014) one finds EC50 and Ki data, which are given here for six compounds.

Usually EC50 stands for the concentration giving half of the maximal effect. Low readings indicate greater potency, high ones weaker potency. Broadly, the Ki is a dissociation constant, usually derived from enzyme kinetics or from competition with a known ligand. High values mean weaker binding, low ones tighter binding.

Bounds are passed on as bounds.

The subject of assay [1] is HCV type 1b replicon in Huh-7 luc/neo cells. Briefly: HCV replicon assay (Huh-Luc cells, luciferase readout). The assay is classed as cell-based. Conditions: Hepatitis C virus, Huh-7, 72 h, three days incubation, luciferase activity. The text has this: The compounds of formula (I) were examined for activity in the inhibition of HCV RNA replication in a cellular assay. […] The cellular assay was based on a bicistronic expression construct, as described by Lohmann et al. (1999) Science vol. 285 pp. 110-113 with modifications described by Krieger et al. (2001) Journal of Virology 75: 4614-4624, in a multi-target screening strategy. In essence, the method was as follows.
The assay utilized the stably transfected cell line Huh-7 luc/neo (hereafter referred to as Huh-Luc). This cell line harbors an RNA encoding a bicistronic expression construct comprising the wild type NS3-NS5B regions of HCV type 1b translated from an Internal Ribosome Entry Site (IRES) from encephalomyocarditis virus (EMCV), preceded by a reporter portion (FfL-luciferase), and a selectable marker portion (neo^R, neomycine phosphotransferase). The construct is bordered by 5′ and 3′ NTRs (non-translated regions) from HCV type 1b. Continued culture of the replicon cells in the presence of G418 (neo^R) is dependent on the replication of the HCV RNA. The stably transfected replicon cells that express HCV RNA, which replicates autonomously and to high levels, encoding inter alia luciferase, are used for screening the antiviral compounds.
The replicon cells were plated in 384 well plates in the presence of the test and control compounds which were added in various concentrations. Following an incubation of three days, HCV replication was measured by assaying luciferase activity (using standard luciferase assay substrates and reagents and a Perkin Elmer ViewLux™ ultraHTS microplate imager). Replicon cells in the control cultures have high luciferase expression in the absence of any inhibitor. The inhibitory activity of the compound on luciferase activity was monitored on the Huh-Luc cells, enabling a dose-response curve for each test compound.
(Replicon systems follow genome replication, usually without infectious particles.)

The target in assay [2] is full-length hepatitis C NS3 protease with NS4A cofactor (Hepatitis C virus genotype 1a (isolate H77) (HCV), UniProt P27958). Briefly: HCV NS3/4A protease inhibition (enzymatic) assay.
Chain of full-length hepatitis C NS3 protease with NS4A cofactor (P27958 1027-1657): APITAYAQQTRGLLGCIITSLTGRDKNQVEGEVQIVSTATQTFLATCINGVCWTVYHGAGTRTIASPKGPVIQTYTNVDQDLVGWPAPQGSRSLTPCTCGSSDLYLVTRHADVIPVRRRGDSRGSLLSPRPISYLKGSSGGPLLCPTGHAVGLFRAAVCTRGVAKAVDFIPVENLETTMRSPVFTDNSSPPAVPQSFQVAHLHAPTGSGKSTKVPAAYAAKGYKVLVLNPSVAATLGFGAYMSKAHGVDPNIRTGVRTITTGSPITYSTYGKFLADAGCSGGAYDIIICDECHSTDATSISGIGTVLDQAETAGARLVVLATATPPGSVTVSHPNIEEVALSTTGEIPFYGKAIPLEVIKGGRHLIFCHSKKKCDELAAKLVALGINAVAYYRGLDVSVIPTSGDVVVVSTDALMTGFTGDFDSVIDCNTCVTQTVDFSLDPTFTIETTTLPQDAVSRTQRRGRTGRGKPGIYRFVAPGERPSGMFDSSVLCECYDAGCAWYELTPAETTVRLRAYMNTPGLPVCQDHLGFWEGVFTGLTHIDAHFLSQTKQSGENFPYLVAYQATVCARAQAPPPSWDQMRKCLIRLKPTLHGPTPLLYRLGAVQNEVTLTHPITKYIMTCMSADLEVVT
Description: The aim of this in vitro assay was to measure the inhibition of HCV NS3/4A protease complexes by the compounds of the present invention.
The inhibition of full-length hepatitis C NS3 protease enzyme was measured essentially as described in Poliakov, 2002 Prot Expression & Purification 25 363 371. Briefly, the hydrolysis of a depsipeptide substrate, Ac-DED(Edans)EEAbuψ[COO]ASK(Dabcyl)-NH2 (AnaSpec, San José, USA), was measured spectrofluorometrically in the presence of a peptide cofactor, [sequence] […] The enzyme (1 nM) was incubated in 50 mM HEPES, pH 7.5, 10 mM DTT, 40% glycerol, 0.1% n-octyl-D-glucoside, with 25 μM NS4A cofactor and inhibitor at 30° C. for 10 min, whereupon the reaction was initiated by addition of 0.5 μM substrate. Inhibitors were dissolved in DMSO, sonicated for 30 sec. and vortexed. The solutions were stored at −20° C. between measurements.
The final concentration of DMSO in the assay sample was adjusted to 3.3%. The rate of hydrolysis was corrected for inner filter effects according to published procedures. […] A minimum of two replicates was performed for all measurements.

With `COc1ccc2c(O[C@@H]3C[C@H]4C(=O)N[C@]5(C(=O)O)C[C@H]5/C=C\CCCCCOC(=O)N4C3)cc(-c3ccccc3)nc2c1` [Compound 24, 18-(7-methoxy-2-phenylquinolin-4-yloxy)-2,15-dioxo-3,16-diaza-14-oxatricyclo[14.3.0.0^4,6]nonadec-7-ene-4-carboxylic acid], the EC50 in assay [1] is greater than 10000 nM. In assay [2], this compound had a Ki of 40 nM.
The corresponding values for `COc1ccc2c(O[C@@H]3C[C@H]4C(=O)N[C@]5(C(=O)NS(=O)(=O)C6CC6)C[C@H]5/C=C\CCCCCOC(=O)N4C3)cc(-c3ccccc3)nc2c1` [Compound 25, N-[18-(7-methoxy-2-phenylquinolin-4-yloxy)-2,15-dioxo-3,16-diaza-14-oxatricyclo[14.3.0.0^4,6]nonadec-7-ene-4-carbonyl](cyclopropyl)-sulfonamide] are 481 nM and 2.4 nM.
The compound `COc1ccc2c(O[C@@H]3C[C@H]4C(=O)N[C@]5(C(=O)O)C[C@H]5/C=C\CCCCOC(=O)N4C3)nc(Cl)cc2c1` [Compound 16, 17-(3-chloro-6-methoxyisoquinolin-1-yloxy)-2,14-dioxo-3,15-diaza-13-oxatricyclo[13.3.0.0^4,6]octadec-7-ene-4-carboxylic acid] registered an EC50 in assay [1] greater than 10000 nM. For the same compound, in assay [2], the affinity, expressed as Ki, was 1000 nM.
The corresponding values for `COc1ccc2c(O[C@@H]3C[C@H]4C(=O)N[C@]5(C(=O)NS(=O)(=O)C6CC6)C[C@H]5/C=C\CCCCOC(=O)N4C3)nc(Cl)cc2c1` [Compound 17, N-[17-(3-chloro-6-methoxyisoquinolin-1-yloxy)-2,14-dioxo-3,15-diaza-13-oxatricyclo[13.3.0.0^4,6]octadec-7-ene-4-carbonyl](cyclopropyl) sulfonamide] are greater than 10000 nM and 43 nM.
The like results for `COc1ccc2c(O[C@@H]3C[C@H]4C(=O)N[C@]5(C(=O)O)C[C@H]5/C=C\CCCCOC(=O)N4C3)cc(-c3ccccc3)nc2c1` [Compound 22, 17-(7-methoxy-2-phenylquinolin-4-yloxy)-2,14-dioxo-3,15-diaza-13-oxatricyclo[13.3.0.0^4,6]octadec-7-ene-4-carboxylic acid] were, in that order, greater than 10000 nM and 1070 nM.
The like results for `COc1ccc2c(O[C@@H]3C[C@H]4C(=O)N[C@]5(C(=O)NS(=O)(=O)C6CC6)C[C@H]5/C=C\CCCCOC(=O)N4C3)cc(-c3ccccc3)nc2c1` [Compound 23, N-[17-(7-methoxy-2-phenylquinolin-4-yloxy)-2,14-dioxo-3,15-diaza-13-oxatricyclo[13.3.0.0^4,6]octadec-7-ene-4-carbonyl](cyclopropyl)-sulfonamide] were, in that order, 1080 nM and 0.2 nM.
